Test results as given in patent US4448783A, “Substituted pyrazoline, and its use in treatment of gastro-intestinal disturbances” (Burroughs Wellcome Co., priority 1982, dated 1984).

Tested on: response of the rabbit colon in vitro to bradykinin
Assay: Inhibition of the bradykinin response of rabbit colon mucosa in vitro (transepithelial potential difference and short circuit current, Ussing chambers)
Format: cell-based, New Zealand white male rabbits
Details: Oryctolagus cuniculus, 0.5 h, incubated 30 min prior to bradykinin (1×10^-6 M), read-out: ED50 (the source's name)
Text: Measurement of transepithelial potential difference (PD) and short circuit current (Isc)
New Zealand white male rabbits (2-3 kg) were fed standard rabbit chow and water ad lib. Rabbits were killed by cervical dislocation, and the distal colon or ileum removed rapidly, opened along its mesenteric border, and rinsed clean of luminal contents with cold Ringer's solution containing, in mmol/liter NaCl, 114; KCl, 5; NaH2 PO4, 0.3; CaCl2, 1.25; MgCl2, 1.1; and NaHCO3, 25 (standard Ringer). Before use, tissues were maintained in ice-cold Ringer with 95% O2 /5% CO2. The standard ringer solution also contained captopril (5×10^-6 M) to inhibit bradykinin metabolism.
The serosa and two muscle layers were removed by placing a 10 cm strip of ileum, serosa up, on a Lucite plate, making a transverse cut through both external muscle layers with a razor blade, and stripping off the layers longitudinally.
Transepithelial electrical potential difference (PD), total conductance (Gt), and short circuit current (Isc) were measured as described by M. Field et al (A M J. Physiol, 220 1388-1396). Six pieces of mucosa were mounted in Ussing chambers (1.12 cm^2 cross-sectional area), and bathed with 8 ml of standard Ringer on each side. Solutions were circulated by gas lift and maintained at 37° C. in water jacketed reservoirs. […]

| IC50 | Structure (SMILES) |
| --- | --- |
| 50 µM | CNC1=NN(c2cccc(C(F)(F)F)c2)CC1 [R^1 CH3, 3-methylamino-1-(3-trifluoromethylphenyl)-2-pyrazoline] |
| 200 µM | NC1=NN(c2cccc(C(F)(F)F)c2)CC1 [R^1 H, 3-amino-1-(3-trifluoromethylphenyl)-2-pyrazoline] |
